Source: patent US10750742B2, “Pesticidally active pyrazole derivatives” (SYNGENTA PARTICIPATIONS AG, priority 2015, dated 2020)
Read-outs that look alike come from different tables or passages of the source.

Legend:
Format in all cases: in vivo
Spodoptera littoralis = Spodoptera littoralis (Egyptian cotton leaf worm), cotton leaf disc spray test; settings: foliar, 72 h, read-out: control (at least one of mortality, anti-feedant effect, growth inhibition); for percent control (mortality, anti-feedant effect or growth inhibition) at 200 ppm: application rate 200 ppm, L1 larvae, 3 days after infestation
Method in brief: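 Five first-instar larvae per disc were placed on dried, sprayed cotton leaf discs held on agar. Test solutions were aqueous, made from 10′000 ppm DMSO stocks. At day 3, control was counted when mortality, feeding deterrence or growth inhibition exceeded the untreated discs.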

Plutella xylostella = Plutella xylostella (diamond back moth), artificial diet test; settings: 120 h, read-out: control (mortality and growth inhibition)
Procedure: Plutella xylostella (Diamond Back Moth):
24-well microtiter plates with artificial diet were treated with aqueous test solutions prepared from 10′000 ppm DMSO stock solutions by pipetting. After drying, the plates were infested with L2 larvae (10 to 15 per well). The samples were assessed for mortality and growth inhibition in comparison to untreated samples 5 days after infestation.

Diabrotica balteata = Diabrotica balteata (corn root worm), maize sprout test; settings: 96 h, read-out: control (mortality and growth inhibition)
Procedure: Diabrotica balteata, (Corn Root Worm)
Maize sprouts, placed on an agar layer in 24-well microtiter plates were treated with aqueous test solutions prepared from 10′000 ppm DMSO stock solutions by spraying. After drying, the plates were infested with L2 larvae (6 to 10 per well). The samples were assessed for mortality and growth inhibition in comparison to untreated samples 4 days after infestation.

Thrips tabaci = Thrips tabaci (onion thrips), sunflower leaf disc test; settings: foliar, 144 h, read-out: control (mortality)
Procedure: Thrips tabaci (Onion Thrips):
Sunflower leaf discs were placed on agar in 24-well microtiter plates and sprayed with aqueous test solutions prepared from 10′000 ppm DMSO stock solutions. After drying the leaf discs were infested with a thrips population of mixed ages. The samples were assessed for mortality 6 days after infestation.

Tetranychus urticae = Tetranychus urticae (two-spotted spider mite), bean leaf disc test; settings: foliar, 192 h, read-out: control (mortality on mixed population, mobile stages)
Procedure: Tetranychus urticae (Two-Spotted Spider Mite):
Bean leaf discs on agar in 24-well microtiter plates were sprayed with aqueous test solutions prepared from 10′000 ppm DMSO stock solutions. After drying the leaf discs were infested with a mite population of mixed ages. The samples were assessed for mortality on mixed population (mobile stages) 8 days after infestation.

Euschistus heros = Euschistus heros (neotropical brown stink bug), soybean leaf test; settings: 120 h, read-out: effect in at least one of the two categories (mortality or growth inhibition); for percent effect (mortality or growth inhibition) at 200 ppm: application rate 200 ppm, N2 nymphs, 5 days after infestation
Procedure: Euschistus heros (Neotropical Brown Stink Bug):
Soybean leaves on agar in 24-well microtiter plates were sprayed with aqueous test solutions prepared from 10′000 ppm DMSO stock solutions. After drying the leaves were infested with N2 nymphs. The samples were assessed for mortality and growth inhibition in comparison to untreated samples 5 days after infestation.

Myzus persicae [1] = experiment: Myzus persicae (green peach aphid), sunflower leaf disc spray test; settings: foliar, 144 h
Procedure: Myzus persicae (Green Peach Aphid):
Sunflower leaf discs were placed on agar in a 24-well microtiter plate and sprayed with test solutions at an application rate of 200 ppm. After drying, the leaf discs were infested with an aphid population of mixed ages. After an incubation period of 6 DAT, samples were checked for mortality. The following compounds gave at least 80% mortality of Myzus persicae: compounds 1,2, 3, 4, 5, 6, 11, 12, 15, 17, 18, 19, 20, 23, 24, 25, 26, 27, 30, 32, 33, 34 35, 41, 43, 44, 47, 50, 55, 58, 59, 60, 61, 62, 63, 64, 65 and 66.

Myzus persicae [2] = experiment: Myzus persicae (green peach aphid), sucrose solution / Parafilm test; settings: 120 h
Method in brief: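 Compound mixed into sucrose solution at 12.5 ppm under stretched Parafilm; aphid-infested pea seedlings set on the membrane and plate inverted so insects feed through it. Mortality assessed 5 days after infestation.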

[3] = application rate 200 ppm, L2 larvae, 5 days after infestation
[4] = application rate 200 ppm, L2 larvae, 4 days after infestation
[5] = application rate 200 ppm, mixed ages, 6 days after infestation
[6] = application rate 200 ppm, 8 days after infestation
[7] = application rate 200 ppm, mixed ages, 6 DAT, read-out: mortality
[8] = test rate of 12 ppm, sucrose solution, 5 days after infestation, read-out: mortality

Cn1nc(OCC(F)(F)C(F)(F)C(F)(F)C(F)F)c(C(F)(F)F)c1-n1cc(-c2ccc(Cl)c(C(=O)NC3CC3)c2)cn1 [compound 27]
≥ 80%: mortality at 200 ppm (Spodoptera littoralis) | mortality at 200 ppm (Plutella xylostella) | mortality at 200 ppm (Diabrotica balteata) | mortality at 200 ppm (Thrips tabaci) | mortality at 200 ppm (Tetranychus urticae) | percent control (mortality or growth inhibition) at 200 ppm (Euschistus heros) | mortality at 200 ppm (Myzus persicae [1]) | mortality at 12 ppm (Myzus persicae [2])

Cn1nc(OCC(F)(F)C(F)F)c(C(F)(F)F)c1-n1cc(-c2ccc(Cl)c(C(=O)NC3(C#N)CC3)c2)cn1 [compound 30]
≥ 80%: percent control (mortality, anti-feedant effect or growth inhibition) at 200 ppm (Spodoptera littoralis) | mortality at 200 ppm (Plutella xylostella; [3]) | mortality at 200 ppm (Diabrotica balteata; [4]) | mortality at 200 ppm (Thrips tabaci; [5]) | mortality at 200 ppm (Tetranychus urticae; [6]) | percent effect (mortality or growth inhibition) at 200 ppm (Euschistus heros) | mortality at 200 ppm (Myzus persicae [1]; [7]) | mortality at 12 ppm (Myzus persicae [2]; [8])

Cn1nc(OCC(F)(F)C(F)(F)F)c(C(F)(F)F)c1-n1cc(-c2ccc(Cl)c(C(=O)NC3CC3)c2)cn1 [compound 32]
≥ 80%: percent control (mortality, anti-feedant effect or growth inhibition) at 200 ppm (Spodoptera littoralis) | mortality at 200 ppm (Plutella xylostella; [3]) | mortality at 200 ppm (Diabrotica balteata; [4]) | mortality at 200 ppm (Thrips tabaci; [5]) | mortality at 200 ppm (Tetranychus urticae; [6]) | percent effect (mortality or growth inhibition) at 200 ppm (Euschistus heros) | mortality at 200 ppm (Myzus persicae [1]; [7]) | mortality at 12 ppm (Myzus persicae [2]; [8])

Cn1nc(OCC(F)(F)C(F)F)c(C(F)(F)F)c1-n1cc(-c2ccc(Cl)c(C(=O)NC3CC3)c2)cn1 [compound 33]
≥ 80%: percent control (mortality, anti-feedant effect or growth inhibition) at 200 ppm (Spodoptera littoralis) | mortality at 200 ppm (Plutella xylostella; [3]) | mortality at 200 ppm (Diabrotica balteata; [4]) | mortality at 200 ppm (Thrips tabaci; [5]) | mortality at 200 ppm (Tetranychus urticae; [6]) | percent effect (mortality or growth inhibition) at 200 ppm (Euschistus heros) | mortality at 200 ppm (Myzus persicae [1]; [7]) | mortality at 12 ppm (Myzus persicae [2]; [8])

Cn1nc(OC(F)(F)C(F)Br)c(C(F)(F)F)c1-n1cc(-c2ccc(Cl)c(C(=O)NC3(C#N)CC3)c2)cn1 (centres unmarked) [compound 47]
≥ 80%: percent control (mortality, anti-feedant effect or growth inhibition) at 200 ppm (Spodoptera littoralis) | mortality at 200 ppm (Plutella xylostella; [3]) | mortality at 200 ppm (Diabrotica balteata; [4]) | mortality at 200 ppm (Thrips tabaci; [5]) | mortality at 200 ppm (Tetranychus urticae; [6]) | percent effect (mortality or growth inhibition) at 200 ppm (Euschistus heros) | mortality at 200 ppm (Myzus persicae [1]; [7]) | mortality at 12 ppm (Myzus persicae [2]; [8])

Cn1nc(OC(F)(F)C(F)(C(F)=C(F)C(F)(F)F)C(F)(F)F)c(C(F)(F)F)c1-n1cc(-c2ccc(Cl)c(C(=O)NC3(C#N)CC3)c2)cn1 (centres unmarked) [compound 50]
≥ 80%: percent control (mortality, anti-feedant effect or growth inhibition) at 200 ppm (Spodoptera littoralis) | mortality at 200 ppm (Plutella xylostella; [3]) | mortality at 200 ppm (Diabrotica balteata; [4]) | mortality at 200 ppm (Thrips tabaci; [5]) | mortality at 200 ppm (Tetranychus urticae; [6]) | percent effect (mortality or growth inhibition) at 200 ppm (Euschistus heros) | mortality at 200 ppm (Myzus persicae [1]; [7]) | mortality at 12 ppm (Myzus persicae [2]; [8])

CN(C(=O)c1cc(-c2cnn(-c3c(C(F)(F)F)c(OC(F)(F)C(F)C(F)(F)F)nn3C)c2)ccc1Cl)C1(C#N)CC1 (centres unmarked) [compound 55]
≥ 80%: percent control (mortality, anti-feedant effect or growth inhibition) at 200 ppm (Spodoptera littoralis) | mortality at 200 ppm (Plutella xylostella; [3]) | mortality at 200 ppm (Diabrotica balteata; [4]) | mortality at 200 ppm (Thrips tabaci; [5]) | mortality at 200 ppm (Tetranychus urticae; [6]) | percent effect (mortality or growth inhibition) at 200 ppm (Euschistus heros) | mortality at 200 ppm (Myzus persicae [1]; [7]) | mortality at 12 ppm (Myzus persicae [2]; [8])
